≈ marks a conversion by molar mass, not a printed value.
Key:
[1] = system: Balb/c 3T3 mouse fibroblasts; test: 3T3 in vitro phototoxicity assay (Neutral Red uptake); type: cell-based; details: for Phototoxicity factor: Factor=IC50(-UV)/IC50(+UV), cut-off >5; for IC50: Mus musculus, BALB/c3T3, light or radiation study, with approx. 5 J/cm2 UVA light, Neutral Red uptake
Source text: 3T3 In Vitro Phototoxicity Assay
Phototoxicity is defined as a toxic response that is elicited after the first exposure of the skin to certain chemicals and subsequent exposure to light, or that is induced similarly by skin irradiation after systemic administration of a chemical substance. The assay used in this study is designed to detect the phototoxic potential of a chemical by using a simple in vitro cytotoxicity assay with Balb/c 3T3 mouse fibroblasts. The principle of this test is a comparison of the cytotoxicity of a chemical when tested with and without exposure to a non-toxic dose of UVA-light. Cytotoxicity is expressed as a dose dependent reduction of the growth rate of cells as determined by uptake of the vital dye Neutral Red one day after treatment.
A small amount of substance was weighed and formulated freshly in DMSO just before the start of the exposure of the cells. This stock solution or appropriate dilutions with DMSO were added to the cell suspensions to obtain the required final concentrations. All solutions were generally prepared in Eppendorf caps and discarded after use.
Chlorpromazine (HCL) (Sigma, Batch/Lot No.: 120M1328V), test concentration: 300 μg/mL, Solvent: PBS/3% DMSO
For this study the Neutral Red uptake (NRU) assay of Borenfreund and Puemer (Borenfreund, E, Puemer J A. Toxicity determined in vitro by morphological alterations and Neutral Red absorption. Toxicology Lett. 1985; 24:119-124) modified according to INVITTOX protocol No 78 (ERGATT/FRAME data bank of in vitro techniques in toxicology. INVITTOX PROTOCOL No 78. 3T3 NRU Phototoxicity Assay. March 1994) has been adapted to examine a possible phototoxic potential of the test item. This assay is based on the active uptake of the Neutral Red dye into the lysosomes of cultured murine fibroblasts. Because lysosomal membranes are known to be a site of action of many phototoxic compounds, this assay can provide a measure of potential for phototoxic injury.
A murine fibroblasts clone A 31 (ATCC no. CCL 163—passage No. 108) were cultured in 175 cm^2 tissue culture grade flasks, containing sDMEM (Dulbecco's […] Essential Medium, supplemented with 10% fetal calf serum, 2 mM L-glutamine, 100 units/ml Penicillin and 100 μg/ml streptomycin) at 37° C. in a humidified atmosphere of 6% CO2. Before cells approach confluence they were removed from flasks by trypsinisation. Prior to use in an assay, the cells were transferred to 96-well microtiter plates at a concentration of 1×10^4 cells/well in 100 μl volumes of sDMEM and allowed to attach for 24 h.
For incubation with murine fibroblasts, the test item was diluted in PBS/3% DMSO (detailed concentrations see in results).
Culture medium (Dulbecco's Modified Eagle Medium (DMEM), GlutaMAX (Gibco Ref 21885-025), 10% Fetal Bovine Serum (FBS) (Gibco Ref 10270-106), 100 IU/ml Penicillin and 100 μg/ml Streptomycin (Gibco Ref 15140-122)) was removed from the wells and murine fibroblasts were washed with PBS. Afterwards 100 μL of PBS/3% DMSO containing the test item was added and target cells were incubated for 1 h at 37° C. with 6% CO2.
For each test item the microtiter plates were prepared according to Table 4. “UVA plates” were exposed to approx. 5 J/cm^2 UVA light, the “Dark plates” were kept in the dark and served as cytotoxicity control. Plates with chlorpromazine hydrochloride served as positive control. UV flux was measured with a UV-meter (Dr. Gröbel RM21).
Following UV irradiation, the test item was removed from the wells (one washing step with PBS) and replaced with sDMEM. Target cells were then incubated overnight at 37° C. in 6% CO2.
Each plate contained wells with cells and solvent but without test item which were either not incubated with Neutral Red solution (0% standard—S1) or were stained with Neutral Red (100% standard—S2) for calculation of the standard cell viability curve. Wells labeled with U01-U08 contained the different test item concentrations. […]

[2] = system: TLR7 agonist-induced lupus-like disease; test: R848 agonist induced mouse lupus nephritis disease model; type: in vivo, BALB/c mice; details: 10 mg/kg orally once daily
Source text: Agonist Induced Mouse Lupus Nephritis Disease Model To assess compound efficacy in vivo against lupus nephritis, we utilized a murine model of TLR7 agonist-induced lupus-like disease, in which TLR7 activation leads to the development of systemic autoimmune symptoms with elevated levels of autoantibodies to double-stranded DNA (anti-dsDNA), inflammatory cytokines such as IP10, as well as multiple organs involvement especially in kidney and spleen. BALB/c mice were purchased from Vital River Laboratories Co., Ltd., Beijing, China. All mice were 7 to 8-week old female. To induce disease, animals were topically treated on the right ear with 100 μg of Resiquimod (R848) solved in 20 μL of acetone for three times per week. Compound or vehicle treatment was administrated orally once daily and 30 minutes prior to the epicutanenous R848 treatment if they were on the same day. Blood samples were collected once weekly to gauge the level of autoantibody against double stranded DNA and multiple cytokines in serum. The total anti-dsDNA Immunoglobulins in serum were measured according to the manufacturer's instruction with a commercially available ELISA assay (Cat #5110, Alpha Diagnostic Inti Inc.). Cytokine levels in serum were measured with a ProcartaPlex immunoassay Kit (Cat #[…], Thermo Fisher). Specifically, 10 μL of premixed magnetic capture beads were added to a DropArray DA-bead plate (Cat #969-CC-BD-05, Curiox). After washing, 10 μL of diluted sera (1:5) was incubated on the DA-bead plate overnight at 4° c. After washing for three times, 5 μL of premixed detection antibody was added to the plate with an incubation for 60 minutes at room temperature. After washing, 10 μL of Streptavidin-PE was added with an incubation for 30 minutes at room temperature. The beads were then re-suspended in 55 μL Reading Buffer. Samples were analyzed with a Luminex 200 (Millipore). Urine samples were collected once weekly with the animals housed in metabolic cages for 24 hours, and were subjected to the measurements of urinary albumin (UALB), urinary creatinine (UCR) and urinary total protein (UTP) with a Roche Cobas 6000 Chemistry Analyzer (Roche Diagnostics, Mannheim, Germany). Tubular protein scores of 0 to 3 were based on the percentage of tubules containing proteinaceous fluid. Grade 1: <25% of tubules affected; Grade 2: 25 to 50% of tubules affected; Grade 3: >50% of tubules affected. Spleens were harvested and weighed upon study termination to evaluate splenomegaly.

`[2H]c1ccc2c(N3C[C@@H]4CN(CCc5ccc(N6C[C@H]7NCCO[C@@H]7C6)nc5)CCN4[C@H](C)C3)ccc(C#N)c2n1` [Example 77, 5-[(4R,9aS)-8-[2-[6-[(4aR,7aR)-3,4,4a,5,7,7a-hexahydro-2H-pyrrolo[3,4-b][1,4]oxazin-6-yl]-3-pyridyl]ethyl]-4-methyl-3,4,6,7,9,9a-hexahydro-1H-pyrazino[1,2-a]pyrazin-2-yl]-2-deuterio-quinoline-8-carbonitrile] was tested, and the Phototoxicity factor [1] was >1.9 and the IC50 [1] was 52.5 mg/L (≈ 97.3 µM).
`CO[C@@H]1CN(c2ccc(CCN3CCN4[C@@H](C3)CN(c3ccc(C#N)n5nccc35)C[C@H]4C)cc2)C[C@H]1N` [Example 68, 4-[(4R,9aS)-8-[2-[4-[(3R,4R)-3-amino-4-methoxy-pyrrolidin-1-yl]phenyl]ethyl]-4-methyl-3,4,6,7,9,9a-hexahydro-1H-pyrazino[1,2-a]pyrazin-2-yl]pyrazolo[1,5-a]pyridine-7-carbonitrile] gave a Phototoxicity factor [1] of 1.53 and an IC50 [1] of 65.9 mg/L (≈ 128 µM).
In the case of `C[C@@H]1CN(c2ccc(C#N)c3ncccc23)C[C@@H]2CN(Cc3ccc4c(c3)CNCC4)CCN21` [Example 5, 5-[(4R,9aS)-4-methyl-8-(1,2,3,4-tetrahydroisoquinolin-7-ylmethyl)-3,4,6,7,9,9a-hexahydro-1H-pyrazino[1,2-a]pyrazin-2-yl]quinoline-8-carbonitrile], the Phototoxicity factor [1] is reported as >1.39 and the IC50 [1] is reported as 23.3 mg/L (≈ 51.5 µM).
For `[2H]c1ccc2c(N3C[C@@H]4CN(c5ccc([C@@H]6CNCCO6)cc5)CCN4[C@@H](C)C3)ccc(C#N)c2n1` [Example 106, 5-[(4S,9aS)-4-methyl-8-[4-[(2R)-morpholin-2-yl]phenyl]-3,4,6,7,9,9a-hexahydro-1H-pyrazino[1,2-a]pyrazin-2-yl]-2-deuterio-quinoline-8-carbonitrile], the “production of Interferon gamma-induced protein 10 (IP-10) in serum” value ([2]; after 1 week of treatment (FIG. 3A)) was “inhibited”, the “level of anti-dsDNA autoantibodies in serum” value ([2]; after 2 weeks of treatment (FIG. 3B)) was “significantly reduces” and the “kidney damage / R848-induced proteinuria (UACR)” value ([2]; after 5 weeks of treatment (FIG. 3C)) was “no R848-induced proteinuria increase”. The “splenomegaly / spleen weight” value ([2]; after 6 weeks of treatment (FIG. 3D)) was “prevented splenomegaly”, the Phototoxicity factor [1] was >1.67 and the IC50 [1] was 60.2 mg/L (≈ 128 µM).
For `CO[C@@H]1CN(c2ccc(CCN3CCN4[C@@H](C3)CN(c3ccc(C#N)c5ncccc35)C[C@H]4C)cn2)C[C@H]1N` [Example 12, 5-[(4R,9aS)-8-[2-[6-[(3R,4R)-3-amino-4-methoxy-pyrrolidin-1-yl]-3-pyridyl]ethyl]-4-methyl-3,4,6,7,9,9a-hexahydro-1H-pyrazino[1,2-a]pyrazin-2-yl]quinoline-8-carbonitrile], the Phototoxicity factor [1] was >2.53.
For `C[C@@H]1CN(c2ccc(C#N)c3ncccc23)C[C@@H]2CN(c3cccc4c3CNC4)CCN21` [Example 9, 5-[(4R,9aS)-8-isoindolin-4-yl-4-methyl-3,4,6,7,9,9a-hexahydro-1H-pyrazino[1,2-a]pyrazin-2-yl]quinoline-8-carbonitrile], the Phototoxicity factor [1] was >3.9 and the IC50 [1] was 26.3 mg/L (≈ 61.9 µM).

From US20220340597A1, “HEXAHYDRO-1H-PYRAZINO[1,2-A]PYRAZINE COMPOUNDS FOR THE TREATMENT OF AUTOIMMUNE DISEASE” (Hoffmann-La Roche Inc., priority 2019, published 2022)
